Literature values as cited in publication PMC4163017 (ChemMedChem, 2014).
Values joined by “and” are separate entries in the source; they are usually repeats but may differ in a detail not shown here. Equal values may be shown once. Read-outs that look alike come from different tables or passages of the source.

Tests used:
[1] = biological target: IRES SLIIb RNA; conditions: read-out: KD (dissociation constant); free peptide GGHYrFK-amide; ref [4]
[2] = system: 5'-fluorescein-labeled IRES SLIIb RNA; conditions: ref [4]
[3] = system: HCV RNA replicon in ET (luc-ubi-neo/ET) Huh7 cells; conditions: HCV cellular replicon assay; ref [4]
[4] = system: ET (luc-ubi-neo/ET) Huh7 human hepatoma cells; conditions: 72 h, CytoTox-1, previously reported, ref [4]
[5] = fixed catalyst concentration with varying [RNA]

Q: For GGHYrFK-amide, which Kd [1] is on record?
A: The Kd was 44 nM.

Q: What does the source list for Cu-GGHYrFK-amide [1-Cu]?
A: Kd [1]: 44 ± 2 nM; Km [2, 5]: 0.85 ± 0.09 µM; kcat [2, 5]: 0.00883 s⁻¹ and 0.00883 ± 0.00033 s⁻¹; kcat/KM [2, 5]: 10300 M⁻¹ s⁻¹; Turnover Number [2]: 32; activity in combination with recombinant interferon alpha-2b [3]: additive to slightly synergic activity; Cytotoxicity TC50 [4]: greater than 100 µM; Cytotoxicity TC50 ([4]; listed as [GGHYrFK-amide]-Cu^2+, 1-Cu): > 100000 nM
